Marks after values point to notes of the source that are not given here. Where no end group is shown, it is not given here.
How the values were obtained:
GLP-1R = GLP-1R (Homo sapiens, UniProt P43220); experiment: cAMP assay, in vitro activity of polypeptides, HEK293-GLP-1R cells; format: cell-based; set-up: expressed in transfected cells; host or cells: HEK293 (pcDNA3.1, G418-selected single clone); settings: for EC50: HEK293-GLP-1R, cAMP, read-out: Ec50(nM) of the peptide GLP-1R; for GLP-1R agonistic activity: peptides
Procedure: (§1) The digested product was electrophoresed on 1% agarose gel and the target band was cut out with a clean blade, then a gel recovery kit was used to recover the target fragment. The specific experimental operations are carried out according to the kit instructions; • 3) The target fragment enzymatic digestion recovery product and vector plasmid pcDNA3.1 fragment were connected through T4 ligase and transformed into DH5a competent cells, then single colonies were isolated by spreading on plates, and the transformants were selected and expanded for enzyme digestion verification and sequencing verification. • 4) 200 mL of the bacterial liquid obtained in inoculation step 3) and verified by sequencing to contain the fusion protein of the target product was used for plasmid extraction. The kit used was PureLink HiPure Plasmid Maxiprep Kit, and according to the instructions. […] Finally, the ethanol precipitation method was used to recover the plasmid. • 5) The host cells were HEK293, one day before transfection, the cells were spread into a 6-well plate at a density of 2×10^6 cells/well, and the addition volume was 1 mL/well.
(§2) Using a cAMP detection kit (Cisbio, 62AM6PEC) to detect cAMP produced by the recipient cells according to the steps described in the operating instructions. […] If the mixture was not completely melted within 1.5 min, the cells were added dropwise to a 15 mL centrifuge tube containing 8 mL warm culture medium on a clean bench, then centrifuged at 900 rpm for 5 min, the supernatant was discarded, and the cells were re-suspended with 1 mL complete culture medium (15 times by pipetting).

GIPR = biological target: T1, GIPR (Homo sapiens, UniProt P48546); experiment: cAMP assay, in vitro activity of polypeptides, HEK293-GIPR cells; format: cell-based; settings: read-out: Ec50(nM) of the peptide GIPR
T1 construct: expressed in transfected cells; host or cells: HEK293 (pcDNA3.1, G418-selected single clone)
T1 sequence (P48546 22-466): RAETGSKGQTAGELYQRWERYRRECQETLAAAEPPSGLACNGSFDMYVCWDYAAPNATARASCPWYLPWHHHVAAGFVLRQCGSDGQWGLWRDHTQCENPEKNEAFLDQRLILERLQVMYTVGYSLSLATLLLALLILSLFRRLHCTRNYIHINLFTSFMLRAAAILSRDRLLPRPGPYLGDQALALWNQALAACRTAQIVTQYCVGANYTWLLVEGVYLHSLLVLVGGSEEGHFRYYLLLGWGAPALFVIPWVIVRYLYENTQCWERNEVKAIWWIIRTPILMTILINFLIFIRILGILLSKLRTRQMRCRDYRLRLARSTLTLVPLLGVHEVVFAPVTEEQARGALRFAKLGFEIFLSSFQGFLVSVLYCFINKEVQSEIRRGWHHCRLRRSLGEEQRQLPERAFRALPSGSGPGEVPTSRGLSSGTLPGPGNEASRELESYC
Procedure: as §1, §2

db/db mice = experiment: in vivo efficacy in db/db mouse model, blood glucose; settings: 10 nmol/kg s.c.
Procedure: Methods: 7-8 week old db/db mice were randomly divided into 3 groups (Model group, Semaglutide group, HEC-G20 group) according to blood glucose and body weight, with 9 mice in each group. For the groups of Semaglutide (Semaglutide was purchased from Novo Nordisk, lot number was JP52092) and HEC-G20, the corresponding drug was administered subcutaneously into the mice at a dose of 10 nmol/kg for each group, and for the Model group, the corresponding vehicle was injected subcutaneously. The Semaglutide group was dosed once a day, and the HEC-G20 group was dosed twice a week for a total of 4 weeks, and animal blood glucose was tested before each dose.

DIO mice = experiment: in vivo efficacy in DIO model: body weight, food intake, liver, blood biochemistry
Description: Experimental methods: C57/BL6 mice were randomly divided into normal group NFD and model group HFD at the fifth week of age, and the normal group was fed with ordinary maintenance diet, while the model group was fed with high-fat diet D12492. Changes in body weight and food intake in mice were monitored every 3 weeks. After 16 weeks of feeding, the body weight of mice in the model group and the normal group were (47.9±3.4) g and (29.6±1.5) g, respectively, and the difference between the two groups was statistically significant. The normal group was divided into the control group, and the model group mice that were successfully modeled were divided into Vehicle group, Semaglutide group, HEC-G115 group and HEC-G124 group, with 10 mice in each group. For the groups of Semaglutide, HEC-G115 and HEC-G124, the corresponding drug was injected subcutaneously in each group, and PBS was injected subcutaneously in the Vehicle group. […] Weight and food intake were measured before each dose. After 3 weeks of administration, an intraperitoneal glucose tolerance test was performed. After 72 h of the last administration, samples were collected, liver weight was recorded, and liver pathological status and blood biochemical indexes were detected in each group.

[1] = long-term administration 10 nmol/kg s.c., 72 h after last administration
[2] = long-term administration 10 nmol/kg s.c., blood biochemistry

Chain of GLP-1R (P43220 24-463, species assumed): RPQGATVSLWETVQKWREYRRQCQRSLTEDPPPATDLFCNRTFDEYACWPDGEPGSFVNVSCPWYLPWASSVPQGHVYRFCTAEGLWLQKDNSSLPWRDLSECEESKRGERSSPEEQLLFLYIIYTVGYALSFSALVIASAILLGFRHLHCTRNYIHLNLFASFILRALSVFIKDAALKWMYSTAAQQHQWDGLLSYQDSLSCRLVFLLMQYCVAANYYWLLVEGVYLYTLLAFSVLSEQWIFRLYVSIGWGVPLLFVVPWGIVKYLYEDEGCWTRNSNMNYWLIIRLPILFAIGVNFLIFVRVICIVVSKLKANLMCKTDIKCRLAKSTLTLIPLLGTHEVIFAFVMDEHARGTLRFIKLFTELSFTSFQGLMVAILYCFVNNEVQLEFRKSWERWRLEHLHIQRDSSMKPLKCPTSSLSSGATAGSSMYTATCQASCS

Substance: YSEGTFTSDYSILLDKKAQQDFIEWLLAGGPSSGAPPPS [CG136, YSEGTFTSDYSILLDKKAQQDFIEWLLAG GPSSGAPPPS]
- EC50 (GLP-1R): 1.11 nM
- EC50 (GIPR): 0.05 nM

Substance: YSEGTFTSDYSILLDKIAQRAFVQWLIAGGPSSGAPPPS [CG125, YSEGTFTSDYSILLDKIAQRAFVQWLIAG GPSSGAPPPS]
- EC50 (GLP-1R): 0.205 nM
- EC50 (GIPR): 0.073 nM

Substance: YSEGTFTSDYSILLDKIAQREFVQWLIAGGPSSGAPPPS [CG124, YSEGTFTSDYSILLDKIAQREFVQWLIAG GPSSGAPPPS]
- EC50 (GLP-1R): 0.232 nM
- EC50 (GIPR): 0.041 nM

Substance: Semaglutide [reference compound]
- Random blood glucose 1.5 h (db/db mice; 1.5 h): 15.9 ± 3.4 mM
- Random blood glucose 5 h (db/db mice; 5 h): 15.4 ± 4.0 mM
- Random blood glucose 7 h (db/db mice; 7 h): 16.3 ± 4.2 mM
- Random blood glucose D 0 (db/db mice; Semaglutide once a day, HEC-G20 twice a week, D 0): 25.7 ± 3.7 mM
- Random blood glucose D 3 (db/db mice; Semaglutide once a day, HEC-G20 twice a week, D 3): 11.6 ± 4.1 mM
- Random blood glucose D 7 (db/db mice; Semaglutide once a day, HEC-G20 twice a week, D 7): 14.9 ± 4.2 mM
- Random blood glucose D 10 (db/db mice; Semaglutide once a day, HEC-G20 twice a week, D 10): 17.1 ± 4.2 mM
- Random blood glucose D 14 (db/db mice; Semaglutide once a day, HEC-G20 twice a week, D 14): 18.1 ± 3.1 mM
- Random blood glucose D 17 (db/db mice; Semaglutide once a day, HEC-G20 twice a week, D 17): 18.5 ± 3.0 mM
- Random blood glucose D 21 (db/db mice; Semaglutide once a day, HEC-G20 twice a week, D 21): 18.0 ± 3.3 mM
- Random blood glucose D 24 (db/db mice; Semaglutide once a day, HEC-G20 twice a week, D 24): 19.9 ± 2.2 ^a mM
- Cumulative food intake D 7-10 (DIO mice; 10 nmol/kg s.c. repeated, D 7-10): 15.7 g/pcs
- Weight growth rate D 10 (DIO mice; 10 nmol/kg s.c. repeated, D 10): −17.6 ± 5.1%
- Cumulative food intake D 11-13 (DIO mice; 10 nmol/kg s.c. repeated, D 11-13): 20.7 g/pcs
- Weight growth rate D 13 (DIO mice; 10 nmol/kg s.c. repeated, D 13): −21.3 ± 5.8%
- Cumulative food intake D 14-16 (DIO mice; 10 nmol/kg s.c. repeated, D 14-16): 27.9 g/pcs
- Weight growth rate D 16 (DIO mice; 10 nmol/kg s.c. repeated, D 16): −22.3 ± 5.3%
- Cumulative food intake D 17-19 (DIO mice; 10 nmol/kg s.c. repeated, D 17-19): 35.7 g/pcs
- Weight growth rate D 19 (DIO mice; 10 nmol/kg s.c. repeated, D 19): −21.6 ± 5.6%
- Cumulative food intake D 20-22 (DIO mice; 10 nmol/kg s.c. repeated, D 20-22): 41.8 g/pcs
- Weight growth rate D 22 (DIO mice; 10 nmol/kg s.c. repeated, D 22): −24.2 ± 6.2%
- Cumulative food intake D 23-27 (DIO mice; 10 nmol/kg s.c. repeated, D 23-27): 55.0 ^a g/pcs
- Weight growth rate D 25 (DIO mice; 10 nmol/kg s.c. repeated, D 25): −23.2 ± 6.0^a %
- Cumulative food intake D 0 (DIO mice; 10 nmol/kg s.c., D 0): 0.7 g/pcs
- Weight growth rate D 0 (DIO mice; 10 nmol/kg s.c., D 0): 0.0 ± 0.0%
- Cumulative food intake D 1 (DIO mice; 10 nmol/kg s.c., D 1): 1.8 g/pcs
- Weight growth rate D 1 (DIO mice; 10 nmol/kg s.c., D 1): −5.3 ± 1.0%
- Cumulative food intake D 2 (DIO mice; 10 nmol/kg s.c., D 2): 3.2 g/pcs
- Weight growth rate D 2 (DIO mice; 10 nmol/kg s.c., D 2): −7.2 ± 1.2%
- Cumulative food intake D 3 (DIO mice; 10 nmol/kg s.c., D 3): 5.3 g/pcs
- Weight growth rate D 3 (DIO mice; 10 nmol/kg s.c., D 3): −8.2 ± 1.6%
- Cumulative food intake D 4 (DIO mice; 10 nmol/kg s.c., D 4): 8.2 g/pcs
- Weight growth rate D 4 (DIO mice; 10 nmol/kg s.c., D 4): −7.4 ± 2.8%
- Cumulative food intake D 5 (DIO mice; 10 nmol/kg s.c., D 5): 10.2 g/pcs
- Weight growth rate D 5 (DIO mice; 10 nmol/kg s.c., D 5): −6.7 ± 3.7%
- Cumulative food intake D 6 (DIO mice; 10 nmol/kg s.c., D 6): 12.5 g/pcs
- Weight growth rate D 6 (DIO mice; 10 nmol/kg s.c., D 6): −8.2 ± 3.8%
- Weight growth rate D 7 (DIO mice; 10 nmol/kg s.c., D 7): −8.1 ± 4.7%
- Liver (DIO mice; liver weight, long-term administration 10 nmol/kg s.c., 72 h after last administration): 1.0 ± 0.2 ^a g
- Body weight (DIO mice; [1]): 33.0 ± 2.7^a g
- Liver index (DIO mice; [1]): 3.0 ± 0.0 ^a %
- ALT (DIO mice; [2]): 19.3 ± 4.3 ^a U/L
- AST (DIO mice; [2]): 109.4 ± 9.2 ^a U/L
- CHOL (DIO mice; [2]): 2.7 ± 0.4 ^a mmol/L
- TRIGL (DIO mice; [2]): 0.7 ± 0.1 mmol/L

Substance: YSEGTFTSDYSILLDKIAQREFIEWLLAGGPSSGAPPPS [CG115, YSEGTFTSDYSILLDKIAQREFIEWLLAG GPSSGAPPPS]
- EC50 (GLP-1R): 0.291 nM
- EC50 (GIPR): 0.005 nM

Substance: YSEGTFTSDYSILLDKIAQRAFIEWLLAGGPSSGAPPPS [CG121, YSEGTFTSDYSILLDKIAQRAFIEWLLAG GPSSGAPPPS]
- EC50 (GLP-1R): 0.322 nM
- EC50 (GIPR): 0.018 nM

Substance: YSEGTFTSDYSILLDKKAQQDFIEWLIAGGPSSGAPPPS [CG137, YSEGTFTSDYSILLDKKAQQDFIEWLIAG GPSSGAPPPS]
- EC50 (GLP-1R): 0.25 nM
- EC50 (GIPR): 0.061 nM

Substance: YSEGTFTSDYSILLDKIAQREFIEWLIAGGPSSGAPPPS [CG122, YSEGTFTSDYSILLDKIAQREFIEWLIAG GPSSGAPPPS]
- EC50 (GLP-1R): 0.191 nM
- EC50 (GIPR): 0.016 nM

Substance: YSEGTFTSDYSILLDKIAQQEFIEWLIAGGPSSGAPPPS [CG135, YSEGTFTSDYSILLDKIAQQEFIEWLIAG GPSSGAPPPS]
- EC50 (GLP-1R): 0.558 nM
- EC50 (GIPR): 0.015 nM

Substance: YSEGTFTSDYSILLDKIAQREFVQWLLAGGPSSGAPPPS [CG123, YSEGTFTSDYSILLDKIAQREFVQWLLAG GPSSGAPPPS]
- EC50 (GLP-1R): 0.879 nM
- EC50 (GIPR): 0.044 nM

Substance: YGEGTFTSDYSILLDKIAQREFIEWLLAGGPSSGAPPPS [CG126, YGEGTFTSDYSILLDKIAQREFIEWLLAG GPSSGAPPPS]
- EC50 (GLP-1R): 0.918 nM
- EC50 (GIPR): 0.027 nM

Substance: YSEGTFTSDYSILLDKKAQRDFIEWLLAGGPSSGAPPPS [CG127, YSEGTFTSDYSILLDKKAQRDFIEWLLAG GPSSGAPPPS]
- EC50 (GLP-1R): 0.364 nM
- EC50 (GIPR): 0.084 nM

Substance: YSEGTFTSDYSILLDKIAQQEFIEWLLAGGPSSGAPPPS [CG134, YSEGTFTSDYSILLDKIAQQEFIEWLLAG GPSSGAPPPS]
- EC50 (GLP-1R): 2.15 nM
- GLP-1R agonistic activity (GLP-1R): weaker GLP-1R agonistic activities
- EC50 (GIPR): 0.012 nM

Substance: YSEGTFTSDYSILLDKIAQQDFVEWLLAGGPSSGAPPPS [CG133, YSEGTFTSDYSILLDKIAQQDFVEWLLAG GPSSGAPPPS]
- EC50 (GLP-1R): 8.18 nM
- GLP-1R agonistic activity (GLP-1R): weaker GLP-1R agonistic activities
- EC50 (GIPR): 0.017 nM
